Data reported in US20170042171A1, “METHOD OF HANDLING MANGOES” (AGROFRESH, INC., priority 2011, published 2017).

Tests used:
[1] = system: mangoes, Tommy Adkins cultivar; experiment: Pulp firmness of mangoes after MAP bag and/or 1-MCP exposure prior to transport simulation (Example 1); type: in vivo, Mangifera indica
Method: (§1) Mangoes were evaluated for peel and pulp firmness, which are commercial measures of mango quality, using the following test procedure: • Determination of peel resistant to penetration (peel firmness) was accomplished using a Chatillon penetrometer (model DPPH-100) equipped with a chisel tip (6 mm wide). • Readings were obtained choosing randomly six fruit from each treatment. Each fruit was placed by the side on the penetrometer and then the tip of the instrument (chisel) was stalled into the fruit (about 8 mm deep). Six fruits per treatment were selected and readings were used for obtaining the average value of peel firmness for each treatment. • For testing flesh firmness, the other side of the fruit selected for testing peel resistant to penetration was used. The side not tested for peel resistance to penetration was peeled using a standard fruit peeler (which removed approximately a 2 mm thick peel tissue section). The total area peeled was approximately five square centimeters. • Immediately after removing the peel, each fruit was placed on the penetrometer and a new value of firmness was obtained using the chisel tip (to a depth of about 8 mm). Average values were calculated using six fruits per treatment.
Fruit was harvested from a commercial mango farm (Mango Rica S.A.) located in Liberia, Guanacaste. Costa Rica on Apr. 7, 2011. […]

[2] = system: Mangos, Tommy Atkins variety; experiment: Pulp firmness of mangoes after 1-MCP at different concentrations with or without modified B bag, shelf-storage simulation (Example 2); type: in vivo, Mangifera indica; conditions: for Pulp Firmness Difference from Control: 10° C. 15 hours, then ca. 22° C. three days
Method: as §1
This experiment utilized a modified version of the “B bag”. Rather than three layers, the bag consisted of two extruded layers in an 80/20 ratio with the following composition:
The film was perforated using a laser to give an average hole diameter of 104 micrometers with 52 perforations per bag in four rows. The OTR of the bag was ca. 370 cc/hour.
Mangos, Tommy Atkins variety imported from Guatemala, were kept at a temperature of 10° C. for three days. Portions of the mangos were subjected to one of eight different treatments; control (no 1-MCP or bag), 1-MCP only at 500 ppb, bag only, and bag plus one of five different 1-MCP application rates (50, 100, 500, 1000, and 2500 ppb). Each mango weighed ca. 1.1 Kg. For those mangos placed in bags, the bag contained four fruits for a total of 4.4 Kg of fruit per bag. The 1-MCP applications were made at a temperature of 10° C. for 15 hours. The control and each treated sample were then kept at room temperature (ca. 22° C.) for three days to simulate shelf-storage. Bags were kept closed during the shelf-storage simulation. Pulp firmness was then determined with the following results: […]

For `CC1=CC1` [1-MCP, 1-methylcyclopropene], the “Mango Pulp Firmness Difference (Reported as change from control*)” value ([1]; 6 mangoes per bag, 500 ppb 1-MCP for 12 hours prior to transport simulation (10-12° C., 18 days), then 18° C.) was −0.03 Lbs, the “mango quality based on pulp firmness (in words)” value ([1]; MCP exposure prior to transport simulation) was “did not improve the quality of the mangoes” and the “Pulp Firmness Difference from Control” value ([2]; Treatment 1: 1-MCP 500 ppb, Bag No) was 0.43 Lb. For the same molecule, the “Pulp Firmness Difference from Control” value ([2]; Treatment 3: 1-MCP 50 ppb, Bag Yes) was 2.00 Lb, the “Pulp Firmness Difference from Control” value ([2]; Treatment 4: 1-MCP 100 ppb, Bag Yes) was 2.70 Lb and the “Pulp Firmness Difference from Control” value ([2]; Treatment 5: 1-MCP 500 ppb, Bag Yes) was 3.35 Lb. The “Pulp Firmness Difference from Control” value ([2]; Treatment 6: 1-MCP 1000 ppb, Bag Yes) was 2.60 Lb, the “Pulp Firmness Difference from Control” value ([2]; Treatment 7: 1-MCP 2500 ppb, Bag Yes) was 3.29 Lb and the “expected additive effect of the 1-MCP treatment and MAP bag alone on pulp firmness” value ([2]; sum of 1-MCP 500 ppb alone and bag alone) was 1.96 lb.
